# In US20140303145A1, “PHARMACEUTICAL COMPOSITION COMPRISING A POORLY WATER-SOLUBLE ACTIVE INGREDIENT, A SURFACTANT AND A WATER-SOLUBLE POLYMER” (NOVARTIS AG, priority 2001, published 2014):
# Experiments:
# Assay type in all cases: physicochemical
# [1] = Water solubility of PKC412
# Method: (water solubility: <0.1 mg/l), which is referred to hereinafter as PKC412.
# [2] = Dissolution behaviour of capsules (Paddle method USP XXIV, SIFmod); conditions: based on a 25 mg dosage; 1 litre SIFmod pH 6.8; capsule test
# Method: (§1) The medium used for the dissolution behaviour test is 1 litre of a surfactant-free, modified medium according to “Intestinal Fluid, Simulated, TS” from USP XXIV (SIFmod). KH2PO4 is replaced by NaH2PO4. Pancreatin is not added (pH 6.8).
# The dissolution test is carried out according to the “Paddle method” of USP XXIV at 37° C. and at a stirring rate of 50 rpm with a Sotax AT6 (Sotax, Basle, Switzerland). The capsules are placed in a teflon-coated sinker (ATN, Pfaffenheim, France), in order to allow them to remain on the bottom of the dissolution container.
# The average amounts of active ingredient released from each of 3 capsules of 25 mg PKC412 according to examples C1 and C2 are given in Table 7 as a percentage of the theoretical content.
# [3] = Dissolution behaviour of tablets (Paddle method USP XXIV, SIFmod); conditions: based on a 25 mg dosage; 1 litre SIFmod pH 6.8; tablet test
# Method: as §1
# The dissolution test is carried out according to the “Paddle method” of USP XXIV at 37° C. and at a stirring rate of 50 rpm with a Sotax AT6 (Sotax, Basle, Switzerland). The tablets were added and the amounts of active ingredient released were analysed.
# The average amounts of active ingredient released from each of 3 tablets of 25 mg PKC412 according to examples C4-C6 are given in Table 8 as a percentage of the theoretical content.
structure (smiles),measurement,setting,value
CO[C@@H]1[C@H](N(C)C(=O)c2ccccc2)C[C@H]2O[C@]1(C)n1c3ccccc3c3c4c(c5c6ccccc6n2c5c31)C(=O)NC4 [PKC412],solubility,[1],< 0.1 µg/mL
same,comparable solubility of untreated PKC412,[2],< 0.4 % of the theoretical content
same,comparable solubility of untreated PKC412,[3],< 0.4 % of the theoretical content
